From patent publication US20020193422A1, “Anthranilamides and methods of their use” (priority 2001, published 2002)

Biological target: T1, Human Kv1.5 channels (Homo sapiens, UniProt P22460)
T1 construct: expressed in transfected cells; host or cells: Xenopus laevis oocytes (injected with in vitro synthesized Kv1.5 coding RNA)
Experiment: Kv1.5 currents in Xenopus oocytes, two-microelectrode voltage clamp
Format: cell-based
Conditions: human Kv1.5 expressed in Xenopus laevis oocytes; 500 ms voltage jumps to 0 mV and 40 mV; room temperature; percentage inhibition of control current fitted with Hill equation
Procedure: Human Kv1.5 channels were expressed in xenopus oocytes. For this purpose, oocytes from Xenopus laevis were first isolated and defolliculated. Kv1.5 coding RNA synthesized in vitro was then injected into these oocytes. After Kv1.5 protein expression for 1-7 days, Kv1.5 currents were measured in the oocytes using the two-microelectrode voltage clamp technique. The Kv1.5 channels were activated here with 500 ms voltage jumps to 0 mV and 40 mV. The bath was flushed with a solution of the following: NaCl 96 mM, KCl 2 mM, CaCl2 1.8 mM, MgCl2 1 mM, HEPES 5 mM (titrated with NaOH to pH 7.4). These experiments were carried out at room temperature. The following were used for data collection and analysis: Geneclamp amplifier (Axon Instruments, Foster City, USA) and MacLab D/A converter and software (ADInstruments, Castle Hill, Australia). The compounds according to the invention were tested by adding them to the bath solution in different concentrations. The effects of the compounds were calculated as percentage inhibition of the Kv1.5 control current which was obtained when no compound was added to the solution. The data were then extrapolated using the Hill equation, in order to determine the inhibitory concentrations (IC50) for the respective compounds.

T1 sequence (P22460 whole entry): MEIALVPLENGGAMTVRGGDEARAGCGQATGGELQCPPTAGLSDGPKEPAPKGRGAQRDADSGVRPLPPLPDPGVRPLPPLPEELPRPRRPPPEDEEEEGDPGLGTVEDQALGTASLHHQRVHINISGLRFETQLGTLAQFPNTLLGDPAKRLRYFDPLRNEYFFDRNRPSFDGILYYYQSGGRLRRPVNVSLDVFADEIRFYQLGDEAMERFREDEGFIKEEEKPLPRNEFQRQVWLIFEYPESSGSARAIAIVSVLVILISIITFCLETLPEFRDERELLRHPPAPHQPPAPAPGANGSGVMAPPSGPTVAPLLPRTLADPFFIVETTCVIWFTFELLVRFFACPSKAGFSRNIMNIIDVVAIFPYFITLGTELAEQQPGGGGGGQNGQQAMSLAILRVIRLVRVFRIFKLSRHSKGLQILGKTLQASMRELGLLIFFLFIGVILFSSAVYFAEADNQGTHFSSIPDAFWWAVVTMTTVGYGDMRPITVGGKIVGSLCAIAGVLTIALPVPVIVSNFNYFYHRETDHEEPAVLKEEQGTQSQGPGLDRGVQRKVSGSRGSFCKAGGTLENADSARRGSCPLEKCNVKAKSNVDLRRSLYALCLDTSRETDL

Structure (SMILES) | IC50 [µM]
COc1ccc(NS(=O)(=O)c2cccc(C(F)(F)F)c2)c(C(=O)NCCc2cccs2)c1 [Example 1] | 3
COc1ccc(S(=O)(=O)Nc2cc(F)ccc2C(=O)N(C)Cc2ccccc2)cc1 [Example 2] | 4.1
COc1ccc(NS(=O)(=O)c2ccc(C)cc2)c(C(=O)NCc2ccc(C)o2)c1 [Example 3] | 2.1
Cc1cccc(NS(=O)(=O)c2ccc(Cl)cc2)c1C(=O)NCc1ccc(Cl)cc1 [Example 4] | 2.4
CCN(Cc1ccccc1)C(=O)c1ccccc1NS(=O)(=O)c1ccc(Cl)cc1 [Example 5] | 3.2
Cc1ccc(S(=O)(=O)Nc2ccccc2C(=O)NCc2ccccc2)cc1 [Example 6] | 4.1
CCN(Cc1ccccc1)C(=O)c1ccccc1NS(=O)(=O)c1ccc(C)cc1 [Example 7] | 5
Cc1ccc(S(=O)(=O)Nc2ccccc2C(=O)N(C)CCc2ccccc2)cc1 [Example 8] | 4.6
CCN(Cc1ccccc1)C(=O)c1ccccc1NS(=O)(=O)c1ccccc1 [Example 9] | 4.7
O=C(NCCc1ccccc1)c1ccccc1NS(=O)(=O)c1ccccc1 [Example 10] | 3.8
CN(CCc1ccccc1)C(=O)c1ccccc1NS(=O)(=O)c1ccccc1 [Example 11] | 3.7
Cc1ccc(S(=O)(=O)Nc2ccc(F)cc2C(=O)NCc2ccccc2)cc1 [Example 12] | 3.6
CCN(Cc1ccccc1)C(=O)c1cc(F)ccc1NS(=O)(=O)c1ccc(C)cc1 [Example 13] | 3.7
Cc1ccc(S(=O)(=O)Nc2ccc(F)cc2C(=O)NCCc2ccccc2)cc1 [Example 14] | 4.1
COc1ccc(S(=O)(=O)Nc2ccc(OC)cc2C(=O)N(C)Cc2ccccc2)cc1 [Example 15] | 4.5
COc1ccc(CNC(=O)c2cc(OC)ccc2NS(=O)(=O)c2ccc(Cl)cc2)cc1 [Example 16] | 3.3
CCN(C(=O)c1cc(C)ccc1NS(=O)(=O)c1ccc(C)cc1)c1ccccc1 [Example 17] | 1.6
Cc1ccc(S(=O)(=O)Nc2ccccc2C(=O)NCc2cccc(C)c2)cc1 [Example 18] | 3.5
COc1ccc(NS(=O)(=O)c2ccc(C)cc2)c(C(=O)NCCc2cccs2)c1 [Example 19] | 2.6
Cc1ccc(CNC(=O)c2c(C)cccc2NS(=O)(=O)c2ccc(C)c(Cl)c2)o1 [Example 20] | 3.8
CCCCS(=O)(=O)Nc1ccc(C)cc1C(=O)NCc1ccc(Cl)cc1 [Example 21] | 6.1
O=C(NCc1ccccc1)c1cc(Cl)ccc1NS(=O)(=O)c1ccc(Cl)cc1 [Example 22] | 6
COc1ccc(NS(=O)(=O)c2cccc3cccnc23)c(C(=O)NCCc2ccc(OC)c(OC)c2)c1 [Example 23] | 6.9
CN(Cc1ccccc1)C(=O)c1ccccc1NS(=O)(=O)c1cccc2cccnc12 [Example 24] | 4.6
CCc1ccc(S(=O)(=O)Nc2ccccc2C(=O)N(CC)c2ccccc2)cc1 [Example 25] | 4.2
CCN(C(=O)c1ccccc1NS(=O)(=O)c1ccc2ccccc2c1)c1ccccc1 [Example 26] | 5.6
CCN(C(=O)c1ccccc1NS(=O)(=O)c1ccc(C)cc1OC)c1ccccc1 [Example 27] | 3
CCN(C(=O)c1ccccc1NS(=O)(=O)c1cccc2cccnc12)c1ccccc1 [Example 28] | 1.2
CCN(C(=O)c1ccccc1NS(=O)(=O)c1cccc2ccccc12)c1ccccc1 [Example 29] | 1.9
